Reference: patent US9963457B2, “Crystal of 5-((2-(6-amino)-9H-purin-9-yl)ethyl)amino)pentan-1-o1” (FOREVER CHEER INTERNATIONAL LIMITED, priority 2016, dated 2018)

Legend:
Assay type in all cases: in vivo
[1] = test system: mice after neuropathic pain; assay: Elevated plus maze test (EPM), neuropathic pain; settings: 3 mg/kg IP, 3 mg/kg
Experimental: (§1) An anxious animal model of the prior art—the elevated plus maze test (EPM) was adopted. The mice were acclimated for 30 minutes in the room prior to the behavior observation. The EPM was composed of two open arms (250 lux) and two closed arms (350 lux) arranged opposite to each other. For each test, an individual animal was placed at the center of the test position and allowed to move freely. The test is carried out for 5 minutes. The number of entering the test position for each arm and the time spent therefore were recorded.
The other two sets of tests were conducted to test the effect of the crystal of the present invention on inhibiting anxiety caused by chronic pain and neuropathic pain.
(§2) The EPM test tested the anxiety behavior of mice after the test treatment. The physiological saline, non-crystalline NB001 (3 mg/kg), the crystal of the present invention (3 mg/kg), and Gabapentin (30 mg/kg) as a positive control were intraperitoneally injected (IP) into the mice treated with yeast polysaccharide respectively. The behaviors of Mice were observed 28 days after the yeast polysaccharide treatment.

[2] = test system: mice treated with yeast polysaccharide; assay: Elevated plus maze test (EPM), visceral pain; settings: 3 mg/kg IP
Experimental: (§3) The visceral pain is induced by injecting yeast polysaccharide into the mice colony, and the yeast polysaccharide is derived from Saccharomyces cerevisiae (Sigma), wherein one kind of dextran is resident on the cell wall of the yeast and is identified as a protein-carbohydrate complex. Specifically, the mice were anesthetized after inhaling 1-3% isoflurane, and then a […] suspension of yeast polysaccharide (formulated as a 30 mg/ml solution in physiological saline) was injected into the colon of the mice by using a 24 mm long plastic feed needle within 2 minutes. The control group was injected with 0.1 ml physiological saline. The yeast polysaccharide or physiological saline was injected daily for 3 days. A visceral pain behavior test was carried out according to the Laird procedure. The number of times the mice licking the abdomen within 10 minutes was recorded, excluding other grooming behaviors, stretching of whole body, pressing the abdomen against the floor, and an 1-2-second arched posture. On day 1, 7 and 14 after the injection into the colon, an open field test was carried out from 9 am to 12 pm, and the entire test was a double-blind test. Prior to the behavioral test, the mice were acclimated for 30 minutes in an observation room. The mice were placed at the middle of a new open zone (43.2×43.2×30.5 cm^3) with micro light (<50 lux) and a fan. The movement distance, vertical count, movement count, stereotypic behavior count, and jumping count of animals were recorded within 30 minutes by means of an activity monitoring system equipped with multiple pairs of packaged light beam sets.
as §1, §2

[3] = test system: mice treated with yeast polysaccharide; assay: Visceral pain behavior test in chronic visceral pain model; settings: 3 mg/kg IP
Experimental: Chronic Visceral Pain Model
as §3
as §2, with “The” for “The EPM test tested the anxiety behavior of mice after the test treatment. The”

[4] = test system: mice treated with yeast polysaccharide; assay: Bright/dark box test, visceral pain; settings: 3 mg/kg IP
Experimental: as §3
Bright/dark box test: The test procedure was carried out by using an improved method in accordance with the prior art. The device was composed of a rectangular organic glass box (44×8.5×25 cm^3), which is separated into bright and dark compartments with the equal size by using a door. A 60 watt lamp (400 lux) in turn-on state was placed at 30 cm above the box to irradiate the bright compartment. Each animal was first placed in the dark compartment for 20 seconds, and then the door leading to the bright compartment was open. The time each animal stayed in the dark compartment and the time each animal enters the bright compartment within 10 minutes were recorded.
In order to confirm the effect of the crystal of the present invention on inhibiting anxiety, mice were subjected to a bright/dark box test, and the results were as shown in Table 8. The physiological saline, non-crystalline NB001 (3 mg/kg), the crystal of the present invention (3 mg/kg), and Gabapentin (30 mg/kg) as a positive control were intraperitoneally injected (IP) into the mice treated with yeast polysaccharide respectively. The behaviors of Mice were observed 28 days after the yeast polysaccharide treatment.

[5] = test system: mice after neuropathic pain; assay: Bright/dark box test, neuropathic pain; settings: 3 mg/kg IP, 3 mg/kg

Nc1ncnc2c1ncn2CCNCCCCCO [New NB001, 5-(((2-(6-amino)-9H-purin-9-yl)ethyl)amino)pentan-1-ol]
% time in the open arm [1]: 18.5 ± 1.4 (8) % | therapeutic effect in EPM test as compared with the positive control group ([2]; Table 7, listed as the crystal of the present invention): extremely significant | % time in the open arm ([2]; Visceral pain, 3 mg/kg): 10.3 ± 1.2 (8) % | Number of visceral pain scores ([3]; 28 days after yeast polysaccharide treatment): 11.0 ± 0.7 | therapeutic effect on chronic pain as compared with the positive control group ([3]; Table 6, listed as the crystal of the present invention): extremely significant | therapeutic effect in bright/dark box test as compared with the positive control group ([4]; Table 8, listed as the crystal of the present invention): extremely significant | % time in the open arm ([4]; Bright/dark box test, Visceral pain, 3 mg/kg): 10.3 ± 1.2 (8) % | % time in the open arm [5]: 18.5 ± 1.4 (8) %
